Assay results published in patent US20250375455A1 (priority 2022, published 2025).
In brackets after ≈: the same amount, converted by molar mass. Structures can show the parent of a compound that is named as a salt. Where two headings read alike, the source gives them in different places.

What was measured:
Assay in all cases: microbe, parasite or virus in culture
Mtb-lineage4 = assay type: cell-based, Mycobacterium tuberculosis; conditions: for direct inhibition of growth: Mtb-lineage4, in-vitro, 5, 10 and 50 μM, over 20 days
Mtb-lineage2 = assay type: cell-based, Mycobacterium tuberculosis; conditions: for direct inhibition of growth: Mtb-lineage2, in-vitro, 5, 10 and 50 μM, over 20 days; for IC50 / MIC: Mycobacterium tuberculosis
M. bovis = assay type: cell-based, Mycobacterium bovis; conditions: for MIC: Mycobacterium tuberculosis variant bovis
Maf-lineage5 = assay type: cell-based, Mycobacterium africanum; conditions: for direct inhibition of growth: Maf-lineage5, in-vitro, 5, 10 and 50 μM, over 20 days
Maf-lineage6 = assay type: cell-based, Mycobacterium africanum; conditions: for direct inhibition of growth: Maf-lineage6, in-vitro, 5, 10 and 50 μM, over 20 days; for MIC: Mycobacterium tuberculosis

## C#Cc1cccc(Nc2ncnc3cc(OCCOC)c(OCCOC)cc23)c1 [Erlotinib]
Mtb-lineage4
  direct inhibition of growth: directly inhibit growth
Mtb-lineage2
  direct inhibition of growth: directly inhibit growth
Mtb-lineage2; 360 h, Mtb-lineage2, Day 15
  IC50: 16.3 µM
Mtb-lineage2; 360 h, Mtb-lineage2, Day 15, read-out: MIC
  MIC: 33 µM (≈ 13 µg/mL)
Mtb-lineage2; 384 h, Mtb-lineage2, Day 16
  IC50: 10.1 µM
Mtb-lineage2; 384 h, Mtb-lineage2, Day 16, read-out: MIC
  MIC: ~1.07 µM (≈ 0.423 µg/mL)
Mtb-lineage2; 408 h, Mtb-lineage2, Day 17
  IC50: 8.65 µM
Mtb-lineage2; 408 h, Mtb-lineage2, Day 17, read-out: MIC
  MIC: 41 µM (≈ 16.1 µg/mL)
Mtb-lineage2; 456 h, Mtb-lineage2, Day 19
  IC50: 6.79 µM
Mtb-lineage2; 456 h, Mtb-lineage2, Day 19, read-out: MIC
  MIC: 49.4 µM (≈ 19.4 µg/mL)
Mtb-lineage2; 480 h, Mtb-lineage2, Day 20
  IC50: 6.19 µM
Mtb-lineage2; […], Mtb-lineage2, Day 18
  IC50: 7.61 µM
Mtb-lineage2; […], Mtb-lineage2, Day 18, read-out: MIC
  MIC: 43.6 µM (≈ 17.1 µg/mL)
M. bovis
  direct inhibition of growth: directly inhibit growth
Maf-lineage5
  direct inhibition of growth: directly inhibit growth
Maf-lineage6
  direct inhibition of growth: directly inhibit growth

## Cc1ccc(NC(=O)c2ccc(CN3CCN(C)CC3)cc2)cc1Nc1nccc(-c2cccnc2)n1 [Imatinib, Imatinib mesylate]
Mtb-lineage4; Example 4, Mtb-lineage4, concentrations up to 200 μM
  susceptibility to direct inhibition: more susceptible to direct inhibition
Mtb-lineage4; Mtb-lineage4, Day 11
  MIC: Unstable
Mtb-lineage4; Mtb-lineage4, Day 12
  MIC: Unstable
Mtb-lineage4; Mtb-lineage4, Day 13
  MIC: Unstable
Mtb-lineage4; Mtb-lineage4, Day 14
  MIC: Unstable
Mtb-lineage4
  direct inhibition of growth: not
Mtb-lineage4; Mycobacterium tuberculosis, 240 h, Mtb-lineage4, Day 10, read-out: MIC
  MIC: 98.8 µM
Mtb-lineage2; Example 4, Mtb-lineage2, concentrations up to 200 μM
  susceptibility to direct inhibition: more susceptible to direct inhibition
Mtb-lineage2
  direct inhibition of growth: directly restricted the growth
Mtb-lineage2; 240 h, Mtb-lineage2 (a), Day 10, read-out: MIC
  MIC: 56 µM
Mtb-lineage2; 240 h, Mtb-lineage2 (b), Day 10, read-out: MIC
  MIC: 60.4 µM
Mtb-lineage2; 240 h, Mtb-lineage2, Day 10, read-out: MIC
  MIC: 56 µM
Mtb-lineage2; 288 h, Mtb-lineage2 (a), Day 12, read-out: MIC
  MIC: 56.7 µM
Mtb-lineage2; 288 h, Mtb-lineage2 (b), Day 12, read-out: MIC
  MIC: 60.7 µM
Mtb-lineage2; 288 h, Mtb-lineage2, Day 12, read-out: MIC
  MIC: 56.7 µM
Mtb-lineage2; 312 h, Mtb-lineage2 (a), Day 13, read-out: MIC
  MIC: 57.1 µM
Mtb-lineage2; 312 h, Mtb-lineage2 (b), Day 13, read-out: MIC
  MIC: 60.5 µM
Mtb-lineage2; 312 h, Mtb-lineage2, Day 13, read-out: MIC
  MIC: 57.1 µM
Mtb-lineage2; 336 h, Mtb-lineage2 (a), Day 14, read-out: MIC
  MIC: 57.4 µM
Mtb-lineage2; 336 h, Mtb-lineage2 (b), Day 14, read-out: MIC
  MIC: 85.4 µM
Mtb-lineage2; 336 h, Mtb-lineage2, Day 14, read-out: MIC
  MIC: 57.4 µM
Mtb-lineage2; 360 h, Mtb-lineage2 (a), Day 15, read-out: MIC
  MIC: 57.8 µM
Mtb-lineage2; 360 h, Mtb-lineage2 (b), Day 15, read-out: MIC
  MIC: 86.7 µM
Mtb-lineage2; […], Mtb-lineage2 (a), Day 11, read-out: MIC
  MIC: 56.4 µM
Mtb-lineage2; […], Mtb-lineage2 (b), Day 11, read-out: MIC
  MIC: 61 µM
Mtb-lineage2; […], Mtb-lineage2, Day 11, read-out: MIC
  MIC: 56.4 µM
M. bovis
  direct inhibition of growth: directly restricted the growth
  susceptibility to direct inhibition: more susceptible to direct inhibition
M. bovis; 240 h
  MIC: 8.39 µM
M. bovis; 288 h
  MIC: 21.1 µM
M. bovis; 312 h
  MIC: 25.6 µM
M. bovis; 336 h
  MIC: 30.3 µM
M. bovis; 360 h
  MIC: 35.2 µM
M. bovis; […]
  MIC: 16.3 µM
Maf-lineage5; 240 h, Maf-lineage5, Day 10
  MIC: 58.1 µM
Maf-lineage5; 288 h, Maf-lineage5, Day 12
  MIC: 60.8 µM
Maf-lineage5; 312 h, Maf-lineage5, Day 13
  MIC: 62 µM
Maf-lineage5; 336 h, Maf-lineage5, Day 14
  MIC: 63.4 µM
Maf-lineage5; 360 h, Maf-lineage5, Day 15
  MIC: 65.2 µM
Maf-lineage5; Example 4, Maf-lineage5, concentrations up to 200 μM
  susceptibility to direct inhibition: more susceptible to direct inhibition
Maf-lineage5; Maf-lineage5, Day 11
  MIC: 59.5 µM
Maf-lineage5
  direct inhibition of growth: not
Maf-lineage6
  response to drug: didn't respond
  direct inhibition of growth: not
Maf-lineage6; Example 4, Maf-lineage6 (c), concentrations up to 200 μM
  susceptibility to direct inhibition: more susceptible to direct inhibition
Maf-lineage6; 240 h, Maf-lineage6 (a), Day 10
  MIC: ~0.743 µM
Maf-lineage6; 240 h, Maf-lineage6 (b), Day 10
  MIC: ~9090 µM
Maf-lineage6; 240 h, Maf-lineage6 (c), Day 10
  MIC: 101 µM
Maf-lineage6; 240 h, Maf-lineage6 (d), Day 10
  MIC: ~46400 µM
Maf-lineage6; 288 h, Maf-lineage6 (a), Day 12
  MIC: ~0.594 µM
Maf-lineage6; 288 h, Maf-lineage6 (b), Day 12
  MIC: 1460 µM
Maf-lineage6; 288 h, Maf-lineage6 (c), Day 12
  MIC: 100 µM
Maf-lineage6; 312 h, Maf-lineage6 (a), Day 13
  MIC: ~0.562 µM
Maf-lineage6; 312 h, Maf-lineage6 (b), Day 13
  MIC: 1260 µM
Maf-lineage6; 312 h, Maf-lineage6 (c), Day 13
  MIC: 100 µM
Maf-lineage6; 336 h, Maf-lineage6 (a), Day 14
  MIC: ~0.541 µM
Maf-lineage6; 336 h, Maf-lineage6 (b), Day 14
  MIC: 1520 µM
Maf-lineage6; 336 h, Maf-lineage6 (c), Day 14
  MIC: 100 µM
Maf-lineage6; 360 h, Maf-lineage6 (a), Day 15
  MIC: ~0.515 µM
Maf-lineage6; 360 h, Maf-lineage6 (b), Day 15
  MIC: ~3590 µM
Maf-lineage6; 360 h, Maf-lineage6 (c), Day 15
  MIC: 100 µM
Maf-lineage6; […], Maf-lineage6 (a), Day 11
  MIC: ~0.721 µM
Maf-lineage6; […], Maf-lineage6 (b), Day 11
  MIC: ~2390 µM
Maf-lineage6; […], Maf-lineage6 (c), Day 11
  MIC: 101 µM

## COc1cc2ncnc(Nc3ccc(F)c(Cl)c3)c2cc1OCCCN1CCOCC1 [Gefitinib]
Mtb-lineage2; 240 h
  MIC: 54.3 µM (≈ 24.3 µg/mL)
Mtb-lineage2; 288 h
  MIC: 54.3 µM (≈ 24.3 µg/mL)
Mtb-lineage2; 312 h
  MIC: 52.2 µM (≈ 23.3 µg/mL)
Mtb-lineage2; 336 h
  MIC: 54.8 µM (≈ 24.5 µg/mL)
Mtb-lineage2; […]
  MIC: 52.7 µM (≈ 23.6 µg/mL)
